Measured values reported in patent US20070037202A1, “Potentiation of cancer therapies by ZNF217 inhibition” (Regents of the University of California, priority 2002, published 2007).

Assays:
HBL100 cells = experiment: Apoptosis assay, annexin V staining; assay type: cell-based, human; conditions: for annexin staining: HBL100
Experimental: (§1) 1.5×10^5 of Hela cells, ZNF217-GFP transfected HeLa cells, HBL100 cells and ZNF217-GFP transfected HBL100 cells were set up in six well plates and cultured as described above. One the second day, the cells were treated with 100 ng/ml doxirubicin for 16 hours. The cell culture supernatants and cells were collected and washed twice with PBS, resuspended in 100 μl of binding buffer (10 mM HEPS, 140 mM NaCl and 2.5 mM CaCl2, pH 7.4). 5 μl of Annexin V antibody (Alexa Fluor 633 from Molecular Probes) was added and the cells were incubated at room temperature for 15 minutes. After the incubation, 400 μl of binding buffer were added and cell samples were analyzed by flow cytometry. A 633-nm wavelength laser was used to measure the apoptotic cell population. For imaging 1.5×10^4 cells were seeded in 4 well cover glass slides (Fisher). Doxorubicin treating cells 16 hours later, the cells were washed with PBS twice and 200 μl of binding buffer were added, staining process was as same as above and in the meantime, 0.5 μM of DAPI were added to satin the cell nucleus. After staining, the cells were washed twice again with PBS, 400 μl of Binding buffer were added. The apoptotic cells were imaged in Seize con-focal image system.

[1] = system: 184 HMEC and ZNF217 immortalized HMEC; experiment: Doxorubicin induced cell death in ZNF217 transduced versus parental HMEC; assay type: cell-based; conditions: 100 ng/ml doxorubicin; p=0.0146
Description: In order to determine if ZNF217 could confer resistance to doxorubicin on primary mammary epithelial cells, the sensitivity of HMECs which had been previously immortalized by a ZNF217-HA expression construct (Nonet, G. H. et al., 2001, supra) were compared to parental 184 HMECs with finite life span. […] Thus, as well as promoting HMEC immortalization, ZNF217 expression protects HMEC against doxorubicin-induced apoptosis.

[2] = system: HBL100 cells transfected with ZNF217-EGFP; experiment: Apoptosis assay, annexin V staining; assay type: cell-based, human; conditions: for annexin staining: ZNF217-EGFP transfected HBL100
Experimental: as §1
ZNF217 silencing RNA (siRNA) constructs were introduced into HBL100 cells transfected with znf217 and the cells were subsequently treated with Doxorubicin.
The siRNA Dicer Generation kit from Gene Therapy System was used to generate a series of siRNAs. Approximately 30 different 22 bp siRNA sequences were generated, using the following primers: […]

[3] = system: MCF7, 600MPE and HBL100 breast cancer cell lines; experiment: Sensitivity of breast cancer cell lines to doxorubicin (cell death)
[4] = increasing concentrations, in combination with doxorubicin
[5] = not also treated with doxorubicin

SMILES	cells stained with annexin (HBL100 cells; control HBL100 cells, doxorubicin treatment)	less cell death in ZNF217 transduced cells than in control non-transduced 184 HMEC [1]	cells stained with annexin ([2]; ZNF217 transfected HBL100, doxorubicin treatment)	cell death upon exposure to doxorubicin ([3]; HBL100 compared with MCF7 and 600MPE)	resistance to doxorubicin of cell lines with high relative ZNF217 expression versus HBL100 ([3]; MCF7 and 600MPE versus HBL100, all wild type TP53)	annexin staining (HBL100 cells; [4])	annexin staining (HBL100 cells; [5])	cell death (HBL100 cells; HBL100 not transfected (FIG. 11), increasing concentrations, in combination with Doxorubicon)	cell death ([2]; HBL100 transfected with ZNF217-encoding constructs (FIG. 12), increasing concentrations, in combination with Doxorubicon)	annexin staining [2, 4]	annexin staining [2, 5]
COc1cccc2c1C(=O)c1c(O)c3c(c(O)c1C2=O)C[C@@](O)(C(=O)CO)C[C@@H]3O[C@H]1C[C@H](N)[C@H](O)[C@H](C)O1 [doxorubicin]	About 80%	2.5 fold	Less than 40%	higher levels of cell death	three to five-fold more resistant						
CN1N=C(N)c2cn([C@@H]3O[C@H](COP(=O)(O)O)[C@@H](O)[C@H]3O)c3ncnc1c23 [triciribine phosphate]						increased annexin staining	did not display significant staining	increased cell death	increased cell death	increased annexin staining	did not display significant staining
